Converted amounts (≈) assume the structure as drawn. Like-named read-outs stand apart in the source and are kept apart here.
Key:
[1] = tested on: B. thetaiotaomicron ATCC 29741; experiment: Antibacterial MIC, CLSI broth microdilution; format: cell-based; conditions: for MIC: Bacteroides thetaiotaomicron
Experimental: (§1) Grain (−) and gram (+) antibacterial minimum inhibitory concentration (MIC) values (μg/mL) were obtained using CLSI methodology for anti-bacterial susceptibility testing. On each day of testing, serial dilutions of compounds were prepared in microdilution plates using a Tecan robotic workstation. Mueller Hinton broth cultures of representative sensitive and resistant gram negative strains were grown or adjusted to match the turbidity of a 0.5 McFarland standard. 1:200 dilutions were made in an appropriate broth (cation supplemented Mueller Hinton broth) to allow a final inoculum of 1×10^5 cfu. Plates were incubated at 35° C. in ambient air for 18-24 hours, were read spectrophotometrically and checked manually for evidence of bacterial growth. The lowest dilution of compound that inhibited growth was recorded as the MIC. Lysed horse blood was used to supplement broth for testing S. pneumoniae. The MIC's for each compound were assessed against S. aureus, S. pneumoniae, P. acnes, E. coli and B. theta.

E. coli ATCC 25922 = experiment: Antibacterial MIC, CLSI broth microdilution; format: cell-based; conditions: 35° C., 18-24 hours; for MIC: Escherichia coli, ATCC25922
Experimental: as §1

E. coli MG 1655 = experiment: Antibacterial MIC, CLSI broth microdilution; format: cell-based; conditions: 35° C., 18-24 hours; for MIC: Escherichia coli, MG1655
Experimental: as §1

P. acnes ATCC 11827 = experiment: Antibacterial MIC, CLSI broth microdilution; format: cell-based; conditions: 35° C., 18-24 hours; for MIC: Cutibacterium acnes, ATCC11827
Experimental: as §1

P. acnes ATCC 6919 = experiment: Antibacterial MIC, CLSI broth microdilution; format: cell-based; conditions: 35° C., 18-24 hours; for MIC: Cutibacterium acnes, ATCC6919
Experimental: as §1

S. aureus RN450 [2] = experiment: Antibacterial MIC, CLSI broth microdilution; format: cell-based; conditions: 35° C., 18-24 hours; for MIC: Staphylococcus aureus, RN450
Experimental: as §1

[3] = tested on: S. pneumoniae 157E - Strep; experiment: Antibacterial MIC, CLSI broth microdilution; format: cell-based; conditions: 35° C., 18-24 hours, lysed horse blood; for MIC: Streptococcus pneumoniae, 157ESTREP
Experimental: as §1

in vitro = format: cell-based
Experimental: Mammalian cell cytotoxicity was assessed to evaluate potential in vivo risks associated with the tetracycline compounds of the invention. A soluble, non-toxic redox dye (“Resazurin”; Alamar Blue) was used to assess a tetracycline compound's effect on cellular metabolism. At the onset of the experiment, cultures of mammalian COS-1 or CHO cells were washed, trypsinized, and harvested. […] On the next day, serial dilutions of test drug were prepared under sterile conditions and transferred to cell plates. Plates were then incubated under the above conditions for 24 hours. Following the incubation period, the media/drug was aspirated, and 50 μL of resazurin was added. Plates were then incubated under the above conditions for 2 hours and then in the dark at room temperature for an additional 30 minutes. Fluorescence measurements were taken (excitation 535 nm, emission 590 nm) and toxic effects in treated versus control cells were compared based on the degree of fluorescence in each well.

S. aureus RN450 [4] = experiment: In vivo anti-bacterial activity, S. aureus model; conditions: mice, 24 hours; for responders at 5 mg/kg / ED50: Staphylococcus aureus, sc; for responders at 5 mg/kg: lethal IP S. aureus RN450, single subcutaneous dose 5 mg/kg, read-out: Percent Survival; for ED50: read-out: PD50 (dose that protects 50% of the animals)
Experimental: Groups of five mice were injected intraperitoneally with a lethal dose of S. aureus RN450 in a medium of mucin. Mice were evaluated at 24 hours to determine survival. […] In some instances, a dose response study was performed with the compound such that a PD50 (a dose of compound that protects 50% of the animals) could be calculated.

[5] = ATCC29741, 35° C., 18-24 hours, read-out: MIC B. thetaiotaomicron ATCC 29741
[6] = lethal IP S. aureus RN450, subcutaneous

Row | Molecule | MIC [1, 5] [µg/mL] | MIC (E. coli ATCC 25922) [µg/mL] | MIC (E. coli MG 1655) [µg/mL] | MIC (P. acnes ATCC 11827) [µg/mL] | MIC (P. acnes ATCC 6919) [µg/mL] | MIC (S. aureus RN450 [2]) [µg/mL] | MIC [3] [µg/mL] | IC50 at 24 h (in vitro; African green monkey) [µg/mL] | IC50 at 24 h (in vitro; Chinese hamster) [µg/mL] | responders at 5 mg/kg (S. aureus RN450 [4]) [%] | ED50 (S. aureus RN450 [4]; [6]) [mg/kg] | MIC ([1]; ATCC29741, read-out: MIC B. thetaiotaomicron ATCC 29741) [µg/mL] | MIC B. thetaiotaomicron ATCC 29741 ([1]; 35° C., 18-24 hours) | MIC E. coli ATCC 25922 (E. coli ATCC 25922) | MIC E. coli MG 1655 (E. coli MG 1655) | MIC P. acnes ATCC 11827 (P. acnes ATCC 11827) | MIC P. acnes ATCC 6919 (P. acnes ATCC 6919) | MIC S. aureus RN450 (S. aureus RN450 [2]) | MIC S. pneumoniae 157E - Strep [3] | PD50 (dose that protects 50% of the animals) (S. aureus RN450 [4]; [6]) [mg/kg]
1 | CCONCc1ccc(O)c2c1C[C@H]1C[C@H]3[C@H](N(C)C)C(O)=C(C(N)=O)C(=O)[C@@]3(O)C(O)=C1C2=O [AA, (4S,4aS,5aR,12aS)-4-Dimethylamino-7-(ethoxyamino-methyl)-3,10,12,12a-tetrahydroxy-1,11-dioxo-1,4,4a,5,5a,6,11,12a-octahydro-naphthacene-2-carboxylic acid amide] | 4 to 8 (≈ 8.2 to 16.4 µM) | 4 to 8 (≈ 8.2 to 16.4 µM) | 4 to 8 (≈ 8.2 to 16.4 µM) | < 4 | < 4 | < 4 | < 4 | > 75 | > 75 | 100 |  |  |  |  |  |  |  |  |  | 
2 | CNc1c(-c2ccc(O)c3c2C[C@H]2C[C@H]4[C@H](N(C)C)C(O)=C(C(N)=O)C(=O)[C@@]4(O)C(O)=C2C3=O)c(=O)c1=O [AD, (4S,4aS,5aR,12aS)-4-Dimethylamino-3,10,12,12a-tetrahydroxy-7-(2-methylamino-3,4-dioxo-cyclobut-1-enyl)-1,11-dioxo-1,4,4a,5,5a,6,11,12a-octahydro-naphthacene-2-carboxylic acid amide] | > 8 | 4 to 8 (≈ 7.64 to 15.3 µM) | 4 to 8 (≈ 7.64 to 15.3 µM) | < 4 | < 4 | < 4 | < 4 | < 35 | < 35 |  | 4.54 |  |  |  |  |  |  |  |  | 
3 | C=CCONCc1ccc(O)c2c1C[C@H]1C[C@H]3[C@H](N(C)C)C(O)=C(C(N)=O)C(=O)[C@@]3(O)C(O)=C1C2=O [AF] | < 4 | 4 to 8 (≈ 8.01 to 16 µM) | 4 to 8 (≈ 8.01 to 16 µM) | < 4 | < 4 | < 4 | < 4 | 35 to 75 (≈ 70.1 to 150 µM) | 35 to 75 (≈ 70.1 to 150 µM) |  | 0.23 |  |  |  |  |  |  |  |  | 
4 | CN(C)c1cccc2c1C[C@H]1C[C@H]3[C@H](N(C)C)C(O)=C(C(N)=O)C(=O)[C@@]3(O)C(O)=C1C2=O [C] | > 8 | > 8 | > 8 | < 4 | < 4 | < 4 | < 4 | > 75 | > 75 | 100 |  |  |  |  |  |  |  |  |  | 
5 | CC(C)ONCc1ccc(O)c2c1C[C@H]1C[C@H]3[C@H](N(C)C)C(O)=C(C(N)=O)C(=O)[C@@]3(O)C(O)=C1C2=O [DV, (4S,4aS,5aR,12aS-4-Dimethylamino-3,10,12,12a-tetrahydroxy-7-isopropoxyamino-methyl)-1,11-dioxo-1,4,4a,5,5a,6,11,12a-octahydro-naphthacene-2-carboxylic acid amide] | 4 to 8 (≈ 7.98 to 16 µM) | 4 to 8 (≈ 7.98 to 16 µM) | > 8 | < 4 | < 4 | < 4 | < 4 | < 35 | < 35 |  | 1.1 |  |  |  |  |  |  |  |  | 
6 | CN(C)[C@@H]1C(O)=C(C(N)=O)C(=O)[C@@]2(O)C(O)=C3C(=O)c4c(O)ccc(CNOCCF)c4C[C@H]3C[C@@H]12 [DW, (4S,4aS,5aR,12aS)-4-Dimethylamino-7-[(2-fluoro-ethoxyamino)-methyl]-3,10,12,12a-tetrahydroxy-1,11-dioxo-1,4,4a,5,5a,6,11,12a-octahydro-naphthacene-2-carboxylic acid amide] | 4 to 8 (≈ 7.91 to 15.8 µM) | < 4 | > 8 | < 4 | < 4 | < 4 | < 4 | > 75 | > 75 |  | 0.48 |  |  |  |  |  |  |  |  | 
7 | CN(C)[C@@H]1C(O)=C(C(N)=O)C(=O)[C@@]2(O)C(O)=C3C(=O)c4c(O)ccc(CNOCC(F)F)c4C[C@H]3C[C@@H]12 [DX] | < 4 | 4 to 8 (≈ 7.64 to 15.3 µM) | 4 to 8 (≈ 7.64 to 15.3 µM) | < 4 | < 4 | < 4 | < 4 | < 35 | 35 to 75 (≈ 66.9 to 143 µM) |  | 0.58 |  |  |  |  |  |  |  |  | 
8 | CN(C)[C@@H]1C(O)=C(C(N)=O)C(=O)[C@@]2(O)C(O)=C3C(=O)c4c(O)ccc(CNOCC(F)(F)F)c4C[C@H]3C[C@@H]12 [DZ] | < 4 | 4 to 8 (≈ 7.39 to 14.8 µM) | > 8 | < 4 | < 4 | < 4 | < 4 | < 35 | < 35 |  | 1.11 |  |  |  |  |  |  |  |  | 
9 | CON(C)Cc1ccc(O)c2c1C[C@H]1C[C@H]3[C@@H](N(C)C)C(O)=C(C(N)=O)C(=O)[C@@]3(O)C(O)=C1C2=O [Y] |  | > 8 | > 8 | < 4 | < 4 | < 4 | 4 to 8 (≈ 8.2 to 16.4 µM) | > 75 | > 75 |  |  | > 8 |  |  |  |  |  |  |  | 
10 | CCNN(CC)Cc1ccc(O)c2c1C[C@H]1C[C@H]3[C@H](N(C)C)C(O)=C(C(N)=O)C(=O)[C@@]3(O)C(O)=C1C2=O [Z, (4S,4aS,5aR,12aS)-7-(N,N″-Diethyl-hydrazinomethyl)-4-dimethylamino-3,10,12,12a-tetrahydroxy-1,11-dioxo-1,4,4a,5,5a,6,11,12a-octahydro-naphthacene-2-carboxylic acid amide] | > 8 | 4 to 8 (≈ 7.77 to 15.5 µM) | 4 to 8 (≈ 7.77 to 15.5 µM) | < 4 | < 4 | < 4 | < 4 | > 75 | > 75 |  |  |  |  |  |  |  |  |  |  | 
11 | (4S,4aS,5aR,12aS)-4-Dimethylamino-3,12,12a-trihydroxy-1,11-dioxo-7-pyrazin-2-yl-1,4,4a,5,5a,6,11,12a-octahydro-naphthacene-2-carboxylic acid amide [W] |  |  |  |  |  |  |  |  |  |  |  |  | * (weak or no antibacterial activity (greater than about 8 μg/mL)) | * (weak or no antibacterial activity (greater than about 8 μg/mL)) | * (weak or no antibacterial activity (greater than about 8 μg/mL)) | *** (Good antibacterial activity (e.g., less than about 4 μg/mL)) | *** (Good antibacterial activity (e.g., less than about 4 μg/mL)) | *** (Good antibacterial activity (e.g., less than about 4 μg/mL)) | *** (Good antibacterial activity (e.g., less than about 4 μg/mL)) | 1.08

Reference: patent US9012433B2, “Substituted tetracycline compounds” (Paratek Pharmaceuticals, Inc., priority 2006, dated 2015)
